{"source": "paper PMC7864192", "about": "(Cancers, 2021)", "key": {"[1]": {"test_system": "SVOG-3e immortalized human granulosa cell line", "experiment": "Cell viability drug screen (72 h), SVOG-3e control", "type": "cell-based", "details": "monotherapy", "procedure": "(§1) KGN was cultured in conditions identical to AGCT-patient-derived cell lines.\n(§2) Cell lines were seeded at a density of 500 cells/well in 40 uL in 384-well plates (Corning, NY, USA) with the Multidrop™ cell dispenser (Thermo Fischer Scientific, Waltham, MA, USA) and sealed with Breathe-Easy® membrane (Sigma-Aldrich, St. Louis, MO, USA) to prevent evaporation. The SVOG-3e line was seeded at 1000 cells/well due to contact-dependent growth requirements. For each cell line, three biological repeats and two technical repeats each were performed in order to ensure the validity of the drug screens. […] Subsequently, 11 drugs and 12 drug combinations were dispensed and all wells (excluding blanks and non-DMSO control wells) were normalized to 1% DMSO using the HP Tecan D300e Digital Dispenser (Hewlett-Packard, Palo Alto, CA, USA). […] After incubation, luminescence excitation was assessed in the Spectramax reader (Molecular Devices, San Jose, CA, USA) (top read, luminescence excitation at 500 nm) and raw data were processed in Microsoft Excel to subtract background luminescence. […]\n(§3) Overall cell survival (in %) was plotted against the drug concentration range of each drug (in log10[μM]) using GraphPad Prism 8.3.1. […] The IC50 values were calculated based on the Chou–Talalay method using Compusyn software [55]. […]"}, "AGCT cell lines": {"test_system": "AGCT cell lines", "experiment": "Cell viability drug screen (72 h), summary over AGCT cell lines (12 patient-derived, with or without KGN)", "type": "cell-based, human", "details": "Homo sapiens; median over AGCT cell lines; read-out: median IC50 in monotherapy", "procedure": "(§4) Cell lines were seeded at a density of 500 cells/well in 40 uL in 384-well plates (Corning, NY, USA) with the Multidrop™ cell dispenser (Thermo Fischer Scientific, Waltham, MA, USA) and sealed with Breathe-Easy® membrane (Sigma-Aldrich, St. Louis, MO, USA) to prevent evaporation. The SVOG-3e line was seeded at 1000 cells/well due to contact-dependent growth requirements. For each cell line, three biological repeats and two technical repeats each were performed in order to ensure the validity of the drug screens. […] Subsequently, 11 drugs and 12 drug combinations were dispensed and all wells (excluding blanks and non-DMSO control wells) were normalized to 1% DMSO using the HP Tecan D300e Digital Dispenser (Hewlett-Packard, Palo Alto, CA, USA). All drugs were applied in linear concentration ranges (Table 2), including 16 data points to enable combination drug testing at constant ratios (Table 3). Next, the plates were covered with the Breathe-Easy membrane and incubated. After 72 h, the Multidrop dispensed 15 uL per well of Cell Titer Glo 2.0 (Thermo Fischer Scientific, Waltham, MA, USA) and plates were incubated in the dark for 10 min. After incubation, luminescence excitation was assessed in the Spectramax reader (Molecular Devices, San Jose, CA, USA) (top read, luminescence excitation at 500 nm) and raw data were processed in Microsoft Excel to subtract background luminescence. The Z-factor, a mathematical method used to quantify the quality of a drug screen based on the calculation of the separation band between the values of the positive and negative controls, was utilized to assess the quality of drug screens [54]. Screens with a Z-factor value of >0.5 were used for further analysis.\n(§5) Overall cell survival (in %) was plotted against the drug concentration range of each drug (in log10[μM]) using GraphPad Prism 8.3.1. Values that exceeded 100% survival (within +20% biological deviation) were normalized to 100% survival. Similarly, values below 0% cell survival (within −20% biological deviation) were normalized to 0% survival. Values exceeding this deviation were excluded. Dose–response curves were obtained using the model “log(inhibitor) vs. variable slope (normalized response)” to fit the dose–response curves and R^2 values were used to indicate how well the model fit the data (Supplementary Materials Figures S4 and S5). […] The maximum plasma concentration (Cmax) and the plasma concentration at steady state (Css) were used as toxicity thresholds. The Cmax was utilized for drugs in which short, high-dosage time courses are required, while the Css was used for maintenance therapy regimes such as anti-hormonal treatment. […] The IC50 values were calculated based on the Chou–Talalay method using Compusyn software [55]. For anti-hormonal treatment, mostly provided as maintenance therapy, we used IC10 values in addition to the IC50.\n(§6) In addition to the 11 monotherapies, 12 drug combinations were tested (Table 3) simultaneously with the individual drug treatments in the same 384-well plate. […] Synergy was evaluated using the mass action law, a systematic analysis assessing dose–response dynamics in a cost-effective manner [56, 57]. The combination index (CI) was used to indicate antagonistic (CI > 1) additive (CI = 1) and synergistic (CI < 1) effects [55]."}, "[2]": {"details": "cited from earlier work"}, "[3]": {"test_system": "KGN cells (AGCT cell line)", "experiment": "Cell viability drug screen (Cell Titer Glo 2.0, 72 h), mono- and combination therapy, KGN", "details": "for pIC50: Homo sapiens, read-out: IC50 in monotherapy", "procedure": "as §1\n(§7) Cell lines were seeded at a density of 500 cells/well in 40 uL in 384-well plates (Corning, NY, USA) with the Multidrop™ cell dispenser (Thermo Fischer Scientific, Waltham, MA, USA) and sealed with Breathe-Easy® membrane (Sigma-Aldrich, St. Louis, MO, USA) to prevent evaporation. The SVOG-3e line was seeded at 1000 cells/well due to contact-dependent growth requirements. For each cell line, three biological repeats and two technical repeats each were performed in order to ensure the validity of the drug screens. […] Subsequently, 11 drugs and 12 drug combinations were dispensed and all wells (excluding blanks and non-DMSO control wells) were normalized to 1% DMSO using the HP Tecan D300e Digital Dispenser (Hewlett-Packard, Palo Alto, CA, USA). All drugs were applied in linear concentration ranges (Table 2), including 16 data points to enable combination drug testing at constant ratios (Table 3). Next, the plates were covered with the Breathe-Easy membrane and incubated. After 72 h, the Multidrop dispensed 15 uL per well of Cell Titer Glo 2.0 (Thermo Fischer Scientific, Waltham, MA, USA) and plates were incubated in the dark for 10 min. After incubation, luminescence excitation was assessed in the Spectramax reader (Molecular Devices, San Jose, CA, USA) (top read, luminescence excitation at 500 nm) and raw data were processed in Microsoft Excel to subtract background luminescence. […] Screens with a Z-factor value of >0.5 were used for further analysis.\n(§8) Overall cell survival (in %) was plotted against the drug concentration range of each drug (in log10[μM]) using GraphPad Prism 8.3.1. Values that exceeded 100% survival (within +20% biological deviation) were normalized to 100% survival. Similarly, values below 0% cell survival (within −20% biological deviation) were normalized to 0% survival. Values exceeding this deviation were excluded. Dose–response curves were obtained using the model “log(inhibitor) vs. variable slope (normalized response)” to fit the dose–response curves and R^2 values were used to indicate how well the model fit the data (Supplementary Materials Figures S4 and S5). […] The IC50 values were calculated based on the Chou–Talalay method using Compusyn software [55]. For anti-hormonal treatment, mostly provided as maintenance therapy, we used IC10 values in addition to the IC50."}, "[4]": {"test_system": "GCPA028 T1.II patient-derived AGCT cell line", "experiment": "Cell viability drug screen (Cell Titer Glo 2.0, 72 h), mono- and combination therapy, GCPA028", "details": "for pIC50: Homo sapiens, read-out: IC50 in monotherapy", "procedure": "as §7, §5, §6"}, "[5]": {"test_system": "GCPA007 T2.I patient-derived AGCT cell line", "experiment": "Cell viability drug screen (Cell Titer Glo 2.0, 72 h), mono- and combination therapy, GCPA007T2.I", "details": "for pIC50: Homo sapiens, 72 h, read-out: IC50 in monotherapy; for DRI (Fa=0,5): GCPA007T2I"}, "[6]": {"test_system": "GCPA096 T1.I patient-derived AGCT cell line", "experiment": "Cell viability drug screen (Cell Titer Glo 2.0, 72 h), mono- and combination therapy, GCPA096T1.I", "details": "for DRI (Fa=0,5): GCPA096T1I; for pIC50: Homo sapiens, read-out: IC50 in monotherapy"}, "[7]": {"test_system": "GCPA096 T1.V patient-derived AGCT cell line", "experiment": "Cell viability drug screen (Cell Titer Glo 2.0, 72 h), mono- and combination therapy, GCPA096T1.V", "details": "for DRI (Fa=0,5): GCPA096T1V; for pIC50: Homo sapiens, 72 h, read-out: IC50 in monotherapy"}, "[8]": {"test_system": "GCPA113 T1.I patient-derived AGCT cell line", "experiment": "Cell viability drug screen (Cell Titer Glo 2.0, 72 h), mono- and combination therapy, GCPA113T1.I", "details": "for DRI (Fa=0,5): GCPA113T1I; for pIC50: Homo sapiens"}, "[9]": {"test_system": "GCPA007 T2.IV patient-derived AGCT cell line", "experiment": "Cell viability drug screen (Cell Titer Glo 2.0, 72 h), mono- and combination therapy, GCPA007T2.IV", "details": "for DRI (Fa=0,5): GCPA007T2IV; for pIC50: Homo sapiens, read-out: IC50 in monotherapy", "procedure": "(§9) Cell lines were seeded at a density of 500 cells/well in 40 uL in 384-well plates (Corning, NY, USA) with the Multidrop™ cell dispenser (Thermo Fischer Scientific, Waltham, MA, USA) and sealed with Breathe-Easy® membrane (Sigma-Aldrich, St. Louis, MO, USA) to prevent evaporation. […] For each cell line, three biological repeats and two technical repeats each were performed in order to ensure the validity of the drug screens. […] Subsequently, 11 drugs and 12 drug combinations were dispensed and all wells (excluding blanks and non-DMSO control wells) were normalized to 1% DMSO using the HP Tecan D300e Digital Dispenser (Hewlett-Packard, Palo Alto, CA, USA). […] Next, the plates were covered with the Breathe-Easy membrane and incubated. After 72 h, the Multidrop dispensed 15 uL per well of Cell Titer Glo 2.0 (Thermo Fischer Scientific, Waltham, MA, USA) and plates were incubated in the dark for 10 min. After incubation, luminescence excitation was assessed in the Spectramax reader (Molecular Devices, San Jose, CA, USA) (top read, luminescence excitation at 500 nm) and raw data were processed in Microsoft Excel to subtract background luminescence. The Z-factor, a mathematical method used to quantify the quality of a drug screen based on the calculation of the separation band between the values of the positive and negative controls, was utilized to assess the quality of drug screens [54]. Screens with a Z-factor value of >0.5 were used for further analysis.\nas §8, §6"}, "[10]": {"test_system": "GCPA096 T1.II patient-derived AGCT cell line", "experiment": "Cell viability drug screen (Cell Titer Glo 2.0, 72 h), mono- and combination therapy, GCPA096T1.II", "details": "for DRI (Fa=0,5): GCPA096T1II; for pIC50: Homo sapiens, 72 h, read-out: IC50 in monotherapy", "procedure": "as §7, §5, §6"}, "[11]": {"test_system": "GCPA096 T1.XV patient-derived AGCT cell line", "experiment": "Cell viability drug screen (Cell Titer Glo 2.0, 72 h), mono- and combination therapy, GCPA096T1.XV", "details": "for DRI (Fa=0,5): GCPA096T1XV; for pIC50: Homo sapiens, 72 h, read-out: IC50 in monotherapy", "procedure": "as §4, §5, §6"}, "[12]": {"test_system": "GCPA108 T3.IV patient-derived AGCT cell line", "experiment": "Cell viability drug screen (Cell Titer Glo 2.0, 72 h), mono- and combination therapy, GCPA108T3.IV", "details": "for DRI (Fa=0,5): GCPA108T3IV; for pIC50: Homo sapiens, read-out: IC50 in monotherapy", "procedure": "as §4, §5, §6"}, "[13]": {"test_system": "GCPA113 T1.II patient-derived AGCT cell line", "experiment": "Cell viability drug screen (Cell Titer Glo 2.0, 72 h), mono- and combination therapy, GCPA113T1.II", "details": "for DRI (Fa=0,5): GCPA113T1II; for pIC50: Homo sapiens", "procedure": "as §9, §8, §6"}, "[14]": {"test_system": "GCPA096 T1.XVI patient-derived AGCT cell line", "experiment": "Cell viability drug screen (Cell Titer Glo 2.0, 72 h), mono- and combination therapy, GCPA096T1.XVI", "details": "for DRI (Fa=0,5): GCPA096T1XVI; for pIC50: Homo sapiens, read-out: IC50 in monotherapy", "procedure": "as §7, §5, §6"}, "[15]": {"test_system": "GCPA113 T1.III patient-derived AGCT cell line", "experiment": "Cell viability drug screen (Cell Titer Glo 2.0, 72 h), mono- and combination therapy, GCPA113T1.III", "details": "for DRI (Fa=0,5): GCPA113T1III; for pIC50: Homo sapiens"}, "[16]": {"test_system": "MCF-7 human breast cancer cell line", "experiment": "Cell viability drug screen (72 h), MCF-7 positive control for anti-hormonal therapies", "type": "cell-based", "details": "monotherapy", "procedure": "as §1, §2, §3"}, "[17]": {"details": "drug within Carbo+Pacli+Alpelisib"}, "[18]": {"details": "drug within Everolimus+Alpelisib"}, "[19]": {"details": "in combination Carbo+Pacli+Alpelisib"}, "[20]": {"details": "in combination Everolimus+Alpelisib"}, "[21]": {"details": "72 h, read-out: IC50 in monotherapy"}}, "note": "pIC50: −log10 of the molar value. Values joined by “and” are separate entries in the source; they are usually repeats but may differ in a detail not shown here. Identical values can stand only once. Like-named read-outs stand apart in the source and are kept apart here.", "data": [{"compound": "Cc1nc(NC(=O)N2CCC[C@H]2C(N)=O)sc1-c1ccnc(C(C)(C)C(F)(F)F)c1", "note": "[Alpelisib]", "values": [{"measurement": "pIC50", "setting": "[1]", "result": 5.12}, {"measurement": "pIC50", "setting": "AGCT cell lines", "result": 4.82}, {"measurement": "Cmax/Css plasma (Log 10)", "setting": "[2]; human maximum or steady state plasma concentration, log10 of the uM value", "result": 0.84, "unit": "Log 10"}, {"measurement": "Cmax/Css plasma (Log 10)", "setting": "[2]; human plasma Cmax/Css, log10 of uM value, from phase I/II clinical trials", "result": 0.84, "unit": "Log 10"}, {"measurement": "Cmax/Css plasma (Log 10)", "setting": "[2]; human plasma maximum/steady state concentration, ref phase I/II clinical trials", "result": 0.84, "unit": "Log 10"}, {"measurement": "Cmax/Css plasma (Log 10)", "setting": "[2]; human plasma, maximum or steady state concentration, log10 of uM value", "result": 0.84}, {"measurement": "Cmax/Css plasma (Log 10)", "setting": "[2]; human plasma, log10 of uM, phase I/II trials", "result": 0.84}, {"measurement": "Cmax", "setting": "[2]; read-out: Cmax (maximum drug concentration achieved in plasma), human plasma, phase I/II studies", "result": "6.9 µM and 6.92 µM"}, {"measurement": "Cmax", "setting": "[2]; read-out: Cmax/Css plasma, human maximum or steady state plasma concentration", "result": 6.92, "unit": "µM"}, {"measurement": "Cmax", "setting": "[2]; read-out: Cmax/Css plasma, human plasma Cmax/Css, from phase I/II clinical trials", "result": 6.92, "unit": "µM"}, {"measurement": "Cmax", "setting": "[2]; read-out: Cmax/Css plasma, human plasma maximum/steady state concentration, ref phase I/II clinical trials", "result": 6.92, "unit": "µM"}, {"measurement": "Cmax", "setting": "[2]; read-out: Cmax/Css plasma, human plasma, maximum or steady state concentration", "result": 6.92, "unit": "µM"}, {"measurement": "Cmax", "setting": "[2]; read-out: Cmax/Css plasma, human plasma, phase I/II trials", "result": 6.92, "unit": "µM"}, {"measurement": "pIC50", "setting": "[3]; 72 h", "result": 4.61}, {"measurement": "pIC50", "setting": "[3]", "result": 4.61}, {"measurement": "DRI (Fa=0,5)", "setting": "[3]; [17]", "result": 10.9278}, {"measurement": "DRI (Fa=0,5)", "setting": "[3]; [18]", "result": 1.384}, {"measurement": "DRI (Fa=0,5)", "setting": "[4]; GCPA028, in combination Carbo+Pacli+Alpelisib", "result": 4.95}, {"measurement": "DRI (Fa=0,5)", "setting": "[4]; GCPA028, in combination Everolimus+Alpelisib", "result": 0.99}, {"measurement": "pIC50", "setting": "[4]; 72 h", "result": 4.64}, {"measurement": "pIC50", "setting": "[4]", "result": 4.64}, {"measurement": "pIC50", "setting": "[5]", "result": 4.66}, {"measurement": "DRI (Fa=0,5)", "setting": "[5]; in Carbo+Pacli+Alpelisib (10:1:2)", "result": 10.78}, {"measurement": "DRI (Fa=0,5)", "setting": "[5]; in Everolimus+Alpelisib (1:2)", "result": 1.24}, {"measurement": "DRI (Fa=0,5)", "setting": "[6]; [19]", "result": 1.7}, {"measurement": "DRI (Fa=0,5)", "setting": "[6]; [20]", "result": 1.24}, {"measurement": "pIC50", "setting": "[6]; 72 h", "result": 4.93}, {"measurement": "pIC50", "setting": "[6]", "result": 4.93}, {"measurement": "DRI (Fa=0,5)", "setting": "[7]; [17]", "result": 2.2}, {"measurement": "DRI (Fa=0,5)", "setting": "[7]; [18]", "result": 1.57}, {"measurement": "pIC50", "setting": "[7]", "result": 4.82}, {"measurement": "DRI (Fa=0,5)", "setting": "[8]; in Carbo+Pacli+Alpelisib", "result": 3.06}, {"measurement": "DRI (Fa=0,5)", "setting": "[8]; in Everolimus+Alpelisib", "result": 0.95}, {"measurement": "pIC50", "setting": "[8]", "result": 5.02}, {"measurement": "pIC50", "setting": "[8]; [21]", "result": 5.02}, {"measurement": "pIC50", "setting": "[8]; read-out: IC50 in monotherapy", "result": 5.02}, {"measurement": "DRI (Fa=0,5)", "setting": "[9]; [19]", "result": 4.44}, {"measurement": "DRI (Fa=0,5)", "setting": "[9]; [20]", "result": 10.73}, {"measurement": "pIC50", "setting": "[9]; 72 h", "result": 4.57}, {"measurement": "pIC50", "setting": "[9]", "result": 4.57}, {"measurement": "DRI (Fa=0,5)", "setting": "[10]; [17]", "result": 2.15}, {"measurement": "DRI (Fa=0,5)", "setting": "[10]; [18]", "result": 1.5}, {"measurement": "pIC50", "setting": "[10]", "result": 4.90}, {"measurement": "DRI (Fa=0,5)", "setting": "[11]; [17]", "result": 2.12}, {"measurement": "DRI (Fa=0,5)", "setting": "[11]; [18]", "result": 1.36}, {"measurement": "pIC50", "setting": "[11]", "result": 4.84}, {"measurement": "DRI (Fa=0,5)", "setting": "[12]; in Carbo+Pacli+Alpelisib", "result": 13.6802}, {"measurement": "DRI (Fa=0,5)", "setting": "[12]; in Everolimus+Alpelisib", "result": 5.603}, {"measurement": "pIC50", "setting": "[12]; 72 h", "result": 4.27}, {"measurement": "pIC50", "setting": "[12]", "result": 4.27}, {"measurement": "DRI (Fa=0,5)", "setting": "[13]; [17]", "result": 1.81}, {"measurement": "DRI (Fa=0,5)", "setting": "[13]; [18]", "result": 1.09}, {"measurement": "pIC50", "setting": "[13]", "result": 4.67}, {"measurement": "pIC50", "setting": "[13]; [21]", "result": 4.67}, {"measurement": "pIC50", "setting": "[13]; read-out: IC50 in monotherapy", "result": 4.67}, {"measurement": "DRI (Fa=0,5)", "setting": "[14]; in Carbo+Pacli+Alpelisib", "result": 1.95}, {"measurement": "DRI (Fa=0,5)", "setting": "[14]; in Everolimus+Alpelisib", "result": 1.7}, {"measurement": "pIC50", "setting": "[14]; 72 h", "result": 4.63}, {"measurement": "pIC50", "setting": "[14]", "result": 4.63}, {"measurement": "DRI (Fa=0,5)", "setting": "[15]; [17]", "result": 5.76}, {"measurement": "DRI (Fa=0,5)", "setting": "[15]; [18]", "result": 1.89}, {"measurement": "pIC50", "setting": "[15]", "result": 4.94}, {"measurement": "pIC50", "setting": "[15]; [21]", "result": 4.94}, {"measurement": "pIC50", "setting": "[15]; read-out: IC50 in monotherapy", "result": 4.94}]}, {"compound": "CC(C)(C#N)c1cc(Cn2cncn2)cc(C(C)(C)C#N)c1", "note": "[Anastrozole]", "values": [{"measurement": "effect on cell viability at tolerable concentrations", "setting": "[16]", "result": "did not decrease cell viability at tolerable concentrations"}, {"measurement": "pIC50", "setting": "[3]; 72 h", "result": "< 3.70"}, {"measurement": "pIC50", "setting": "[4]; 72 h", "result": "< 3.70"}, {"measurement": "pIC50", "setting": "[5]", "result": "< 3.70"}, {"measurement": "pIC50", "setting": "[6]; 72 h", "result": "< 3.70"}, {"measurement": "pIC50", "setting": "[7]", "result": "< 3.70"}, {"measurement": "pIC50", "setting": "[8]; [21]", "result": "< 3.70"}, {"measurement": "pIC50", "setting": "[9]; 72 h", "result": "< 3.70"}, {"measurement": "pIC50", "setting": "[10]", "result": "< 3.70"}, {"measurement": "pIC50", "setting": "[11]", "result": "< 3.70"}, {"measurement": "pIC50", "setting": "[12]; 72 h", "result": "< 3.70"}, {"measurement": "pIC50", "setting": "[13]; [21]", "result": "< 3.70"}, {"measurement": "pIC50", "setting": "[14]; 72 h", "result": "< 3.70"}, {"measurement": "pIC50", "setting": "[15]; [21]", "result": "< 3.70"}]}]}
